Values of other authors in PMC9184245 (Journal of Pesticide Science, 2022).

Key:
[1] = measured value from experimental database; ref EPI Suite ver. 4.11
fish = details: biomagnification factor, corrected by lipid content and growth rate
[2] = measured value; ref REACH registered substances database

| SMILES | log Kow [1] | Bioaccumulation potential, BMF (fish) | Water solubility [2] |
| --- | --- | --- | --- |
| c1ccc2c(c1)ccc1ccccc12 [Compound 1, Phenanthrene] | 4.46^a^) | – | – |
| c1ccc(-c2ccccc2-c2ccccc2)cc1 [Compound 2, o-Terphenyl] | 5.52^a^) | – | – |
| O=[N+]([O-])c1ccc(Oc2ccc(Cl)cc2Cl)cc1 [Compound 3, Nitrofen] | 4.64^a^) | BMF^d^)=0.179[4]) | – |
| COc1ccc(C(c2ccc(OC)cc2)C(Cl)(Cl)Cl)cc1 [Compound 4, Methoxychlor] | 5.08^a^) | – | – |
| CC(C)(C)c1cc(CCC(=O)OCC(COC(=O)CCc2cc(C(C)(C)C)c(O)c(C(C)(C)C)c2)(COC(=O)CCc2cc(C(C)(C)C)c(O)c(C(C)(C)C)c2)COC(=O)CCc2cc(C(C)(C)C)c(O)c(C(C)(C)C)c2)cc(C(C)(C)C)c1O [Compound 9, Pentaerythritol tetrakis[3-(3,5-di-tert-butyl-4-hydroxyphenyl)propionate]] | – | – | <0.1^c^) mg/L |
